pIC50: −log10 of the molar value.
Target: T1, Interleukin-1 receptor-associated kinase 4 (Homo sapiens, UniProt Q9NWZ3)
T1 sequence (Q9NWZ3 whole entry): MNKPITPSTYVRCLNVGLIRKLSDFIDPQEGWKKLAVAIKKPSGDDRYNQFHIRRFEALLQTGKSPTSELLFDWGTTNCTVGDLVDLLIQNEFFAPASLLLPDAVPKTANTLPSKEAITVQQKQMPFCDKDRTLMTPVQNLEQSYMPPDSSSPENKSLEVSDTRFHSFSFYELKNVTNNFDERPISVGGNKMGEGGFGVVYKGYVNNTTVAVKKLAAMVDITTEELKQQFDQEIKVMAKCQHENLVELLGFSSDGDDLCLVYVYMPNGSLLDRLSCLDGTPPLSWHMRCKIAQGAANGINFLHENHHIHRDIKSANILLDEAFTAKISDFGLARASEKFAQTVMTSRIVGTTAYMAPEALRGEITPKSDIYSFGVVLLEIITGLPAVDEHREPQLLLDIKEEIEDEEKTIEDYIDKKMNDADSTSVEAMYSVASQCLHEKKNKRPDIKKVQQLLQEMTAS
Experiment: Kinase Assay: The kinase activity of IRAK-4 is determined by its ability to catalyze the phosphorylation of a fluorescent polypeptide substrate. The extent of phosphorylation is measured using the IMAP technology (Molecular Devices) where the phosphorylated fluorescent substrate binds to the large M(III)-based nanoparticles which reduces the rotational speed of the substrate and thus increases its fluorescent polarization (FP). 20 μl reaction mixture contains 10 mM TriHCl, pH 7.2, 0.5 nM GST tagged IRAK-4 (SignalChem), 100 nM fluorescent peptide substrate (RP7030, Molecular Devices), 100 μM ATP, 1 mM DTT, 1 mM MgCl2, and 0.01% Tween 20. The reaction is initiated by the addition of ATP. After incubation for 30 minutes at 25° C., 60 μl of Progressive IMAP Reagent (Molecular Devices) is added to stop the reaction. Change in RP7030's FP is determined by a FP reader (Analyst HT, LH, BioSystems).

SMILES | pIC50
Cc1ccc(-n2nc(C3CCCN(Cc4ccc(F)cn4)C3)cc2NC(=O)c2cnn3cccnc23)cc1 (configuration not stated) | > 6.00
Cc1ccc(-n2nc(-c3cncc(N4CCN(C)CC4)c3)cc2NC(=O)c2cnn3cccnc23)cc1 | > 6.00
Cc1ccc(-n2nc(C3CCN(S(C)(=O)=O)CC3)cc2NC(=O)c2cnn3cc(C)cnc23)cc1 | > 6.00
Cc1ccc(-n2nc(C3CCN(C4CCN(C5CC5)CC4)CC3)cc2NC(=O)c2cnn3cccnc23)cc1 | > 6.00
Cc1ccc(-n2nc(C3CCCN(Cc4ccc(S(C)(=O)=O)cc4)C3)cc2NC(=O)c2cnn3cccnc23)cc1 (configuration not stated) | > 7.00
Cc1ccc(-n2nc(C3CCCN(Cc4cn[nH]c4)C3)cc2NC(=O)c2cnn3cccnc23)cc1 (configuration not stated) | > 6.00
Cc1ccc(-n2nc(C3CCCN(Cc4cccc5c4CNC5=O)C3)cc2NC(=O)c2cnn3cccnc23)cc1 (configuration not stated) | > 7.00
Cc1ccc(-n2nc(-c3ccc(S(=O)(=O)N4CCOCC4)cc3)cc2NC(=O)c2cnn3cccnc23)cc1 | > 7.00
CC(=O)N1CCC(N2CCC(c3cc(NC(=O)c4cnn5cccnc45)n(-c4ccc(C)cc4)n3)CC2)CC1 | > 7.00
Cc1ccc(-n2nc(C3CCN(S(C)(=O)=O)CC3)cc2NC(=O)c2cnn3cc(Br)cnc23)cc1 | > 6.00
Cc1ccc(-n2nc(C3CCN(C4CCC(C(F)(F)F)CC4)CC3)cc2NC(=O)c2cnn3cccnc23)cc1 (configuration not stated) | > 7.00
Cc1ccc(-n2nc(C3CCCN(Cc4ncco4)C3)cc2NC(=O)c2cnn3cccnc23)cc1 (configuration not stated) | > 6.00
CCn1nccc1CN1CCCC(c2cc(NC(=O)c3cnn4cccnc34)n(-c3ccc(C)cc3)n2)C1 (configuration not stated) | > 6.00
Cc1ccc(-n2nc(C3CCCN(Cc4ccncc4)C3)cc2NC(=O)c2cnn3cccnc23)cc1 (configuration not stated) | > 6.00
Cc1ccc(-n2nc(C3CCN(S(C)(=O)=O)C3)cc2NC(=O)c2cnn3cccnc23)cc1 (configuration not stated) | > 6.00
Cc1ccc(-n2nc(C3CCN(C4CNC4)CC3)cc2NC(=O)c2cnn3cccnc23)cc1 | > 6.00
O=C(Nc1cc(C2CCN(C3CCC3)CC2)nn1-c1ccc(C2CC2)cn1)c1cnn2cccnc12 | > 7.00
CS(=O)(=O)N1CCC(c2cc(NC(=O)c3cnn4cccnc34)n(-c3ccccc3)n2)CC1 | > 6.00
Cc1ccc(-n2nc(C3CCCN(Cc4ccc5c(c4)C(=O)NC5)C3)cc2NC(=O)c2cnn3cccnc23)cc1 (configuration not stated) | > 6.00
Cc1ccc(-n2nc(C3CCCN(CC4CCOC4)C3)cc2NC(=O)c2cnn3cccnc23)cc1 (configuration not stated) | > 6.00
Cc1ccc(-n2nc(C3CCCN(Cc4ccccn4)C3)cc2NC(=O)c2cnn3cccnc23)cc1 (configuration not stated) | > 6.00
COc1ccc(CN2CCCC(c3cc(NC(=O)c4cnn5cccnc45)n(-c4ccc(C)cc4)n3)C2)cn1 (configuration not stated) | > 6.00
Cc1ccc(-n2nc(C3CCN(C(C)C(=O)N4CCCCC4)CC3)cc2NC(=O)c2cnn3cccnc23)cc1 (configuration not stated) | > 6.00
C#Cc1cnc2c(C(=O)Nc3cc(C4CCN(S(C)(=O)=O)CC4)nn3-c3ccc(C)cn3)cnn2c1 | > 7.00

SMILES | pIC50
Cc1ccc(-n2nc(C3CCCN(Cc4ccn[nH]4)C3)cc2NC(=O)c2cnn3cccnc23)cc1 (configuration not stated) | > 7.00
COc1ccc(-n2nc(C3CCN(S(C)(=O)=O)CC3)cc2NC(=O)c2cnn3cccnc23)nc1 | > 6.00
Cc1ccc(-n2nc(C3CCN(C(C)C(C)C)CC3)cc2NC(=O)c2cnn3cccnc23)cc1 (configuration not stated) | > 6.00
Cc1ccc(-n2nc(C3CCN(S(=O)(=O)C4CC4)CC3)cc2NC(=O)c2cnn3cccnc23)nc1 | > 7.00
COc1ncc(CN2CCCC(c3cc(NC(=O)c4cnn5cccnc45)n(-c4ccc(C)cc4)n3)C2)cn1 (configuration not stated) | > 6.00
CS(=O)(=O)N1CCC(c2cc(NC(=O)c3cnn4cccnc34)n(-c3ccc(CN)cn3)n2)CC1 | > 7.00
COc1ccc(-n2nc(C3CCNCC3)cc2NC(=O)c2cnn3cc(C4CC4)cnc23)cc1 | > 6.00
CS(=O)(=O)N1CCC(c2cc(NC(=O)c3cnn4cccnc34)n(-c3ccc(CO)cn3)n2)CC1 | > 7.00
Cc1ccc(-n2nc(C3CCN(C)CC3)cc2NC(=O)c2cnn3cccnc23)c(F)c1 | > 6.00
CCOC(=O)N1CCC(N2CCC(c3cc(NC(=O)c4cnn5cccnc45)n(-c4ccc(C)cc4)n3)CC2)CC1 | > 7.00
Cc1ccc(-n2nc(C3CCN(C(C)c4cccc(F)n4)CC3)cc2NC(=O)c2cnn3cccnc23)cc1 (configuration not stated) | > 6.00
Cc1ccc(-n2nc(C3CCCN(Cc4cccnc4F)C3)cc2NC(=O)c2cnn3cccnc23)cc1 (configuration not stated) | > 6.00
Cc1cnc(-n2nc(C3CCNCC3)cc2NC(=O)c2cnn3cccnc23)nc1 | < 6.00
Cc1ccc(-n2nc(C3CCN(C(C)C(=O)N4CCCC4)CC3)cc2NC(=O)c2cnn3cccnc23)cc1 (configuration not stated) | > 7.00
Cc1cnc(-n2nc(C3CCN(S(C)(=O)=O)CC3)cc2NC(=O)c2cnn3cccnc23)cn1 | < 6.00
CS(=O)(=O)N1CCC(c2cc(NC(=O)c3cnn4cccnc34)n(CCN)n2)CC1 | > 6.00
COc1ccc(CN2CCC(c3cc(NC(=O)c4cnn5cccnc45)n(-c4ccc(C)cc4)n3)CC2)cn1 | > 6.00
CNC(C)c1ccc(-n2nc(C3CCN(S(C)(=O)=O)CC3)cc2NC(=O)c2cnn3cccnc23)nc1 (configuration not stated) | > 6.00
Cc1ccc(-n2nc(C3CCCN(Cc4cccnc4)C3)cc2NC(=O)c2cnn3cccnc23)cc1 (configuration not stated) | > 6.00
Cc1ccc(-n2nc(C3CCN(S(C)(=O)=O)CC3)cc2NC(=O)c2cnn3cc(Br)cnc23)nc1 | > 7.00
Cc1ccc(-n2nc(C3CCN(CC(C)C)CC3)cc2NC(=O)c2cnn3cccnc23)nc1 | > 7.00
Cc1ccc(-n2nc(C3CCCN(Cc4cnc(N(C)C)s4)C3)cc2NC(=O)c2cnn3cccnc23)cc1 (configuration not stated) | > 6.00
Cc1ccc(-n2nc(-c3ccnc(CN4CCCCC4)c3)cc2NC(=O)c2cnn3cccnc23)cc1 | > 7.00

Source: ChEMBL document CHEMBL3886319, “Amidopyrazole inhibitors of interleukin receptor-associated kinases” (2015)
